Molecules are shown by their SMILES.

The target in one experiment is T1, human μ-opiate receptor (Homo sapiens, UniProt P35372).
T1 construct: purchased Nen company, Zaventem, Belgium RB-HOM; host or cells: CHO-K1 cells (membrane preparation)
T1 sequence (P35372 whole entry): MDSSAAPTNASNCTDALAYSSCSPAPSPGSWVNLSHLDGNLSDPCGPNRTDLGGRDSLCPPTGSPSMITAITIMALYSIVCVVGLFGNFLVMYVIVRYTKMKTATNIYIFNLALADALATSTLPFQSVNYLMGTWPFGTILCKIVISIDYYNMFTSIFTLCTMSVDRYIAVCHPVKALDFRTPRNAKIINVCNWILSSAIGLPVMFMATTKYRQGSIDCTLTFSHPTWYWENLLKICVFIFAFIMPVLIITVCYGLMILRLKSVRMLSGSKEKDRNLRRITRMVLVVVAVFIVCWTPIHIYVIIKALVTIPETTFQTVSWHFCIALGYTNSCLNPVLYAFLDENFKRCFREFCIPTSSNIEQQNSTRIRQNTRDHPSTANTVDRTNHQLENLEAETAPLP
Briefly: Affinity for the human μ-opiate receptor ([3H]-naloxone displacement, SPA, CHO-K1 membrane preparation). Conditions: test substance 1 μmole/l; displacement of 1 nmole/l [3H]-naloxone; percentage inhibition of the specific binding. The method, then:
Method for Determining the Affinity for the Human μ-Opiate Receptor
The receptor affinity for the human μ-opiate receptor is determined in a homogeneous batch in microtiter plates. For this purpose dilution series of the substances to be tested are incubated for 90 minutes at room temperature with a receptor membrane preparation (15-40 μg protein/250 μl incubation batch) of CHO-K1 cells, which express the human μ-opiate receptor (RB-HOM receptor membrane preparation from the Nen company, Zaventem, Belgium), in the presence of 1 nmole/l of the radioactive ligand [^3H]-naloxone (NET719, Nen company, Zaventem, Belgium) and 1 mg WGA-SPA beads (wheat germ agglutinin SPA beads from Amersham/Pharmacia, Freiburg, Germany) in a total volume of 250 μl. 50 mmole/l of Tris-HCl supplemented with 0.05% sodium azide and with 0.06% bovine serum albumin is used as incubation buffer. In order to determine the non-specific binding, 25 μmole/l of naloxone is additionally added. After the end of the 90 minutes' incubation time the microtiter plates are centrifuged for 20 minutes at 1000 g and the radioactivity is measured in a beta counter (Microbeta-Trilux, PerkinElmer Wallac, Freiburg, Germany). The percentage displacement of the radioactive ligand from its binding to the human μ-opiate receptor at a concentration of the test substances of 1 μmole/l is determined and is given as percentage inhibition of the specific binding.
As to `CN(CCc1ccccc1)c1oc(C(C2CCC(C(c3ccc(F)cc3)N(C)C)CC2)N(C)c2ccccc2)nc1Cc1ccccc1` (stereo not shown) [compound 38, {4-benzyl-2-[{4-[dimethylamino-(4-fluorophenyl)-methyl]-cyclohexyl}-(methylphenylamine)-methyl]-oxazol-5-yl}-methylphenethylamine], the “μ-opioid receptor, % inhibition [1 μM]” value came out at 62%.
In the case of `CN(CCc1ccccc1)c1oc(C(C2CCC(C(c3ccc(Cl)cc3)N(C)C)CC2)N(C)c2ccccc2)nc1Cc1ccccc1` (stereo not shown) [compound 43, {4-benzyl-2-[{4-[(4-chlorophenyl)-dimethylaminomethyl]-cyclohexyl}-(methylphenylamine)-methyl]-oxazol-5-yl}-methylphenethylamine], the “μ-opioid receptor, % inhibition [1 μM]” value is recorded as 72%.

The same experiment, now with this note: test substance 1 μmole/l; displacement of 1 nmole/l [3H]-naloxone; percentage inhibition of the specific binding; read-out: μ-opioid receptor, % inhibition [1 μM].
With `CC1CC(C)CN(c2oc(C(C3CCC(C(c4ccc(F)cc4)N(C)C)CC3)N(C)c3ccccc3)nc2Cc2ccccc2)C1` (stereo not shown) [compound 37, ([4-benzyl-5-(3,5-dimethylpiperidin-1-yl)-oxazol-2-yl]-{4-[dimethylamino-(4-fluorophenyl)-methyl]-cyclohexyl}-methyl)-methylphenylamine], the inhibition at 1 µM was determined as 68%.
On the same count and under the same terms, then `CCN(CC)c1oc(C(C2CCC(C(c3ccc(Cl)cc3)N(C)C)CC2)N2CCCCC2)nc1Cc1ccccc1` (stereo not shown) [compound 39, [4-benzyl-2-({4-[(4-chlorophenyl)-dimethylaminomethyl]-cyclohexyl}-piperidin-1-yl-methyl)-oxazol-5-yl]-diethylamine], with 75%; and `CC1CCCN(c2oc(C(C3CCC(C(c4ccc(Cl)cc4)N(C)C)CC3)N3CCCCC3)nc2Cc2ccccc2)C1` (stereo not shown) [compound 40, [(4-{[4-benzyl-5-(3-methylpiperidin-1-yl)-oxazol-2-yl]-piperidin-1-yl-methyl}-cyclohexyl)-(4-chlorophenyl)-methyl]-dimethylamine], with 60%; and `CCN(CC)C(c1nc(Cc2ccccc2)c(N2CC(C)CC(C)C2)o1)C1CCC(C(c2ccc(Cl)cc2)N(C)C)CC1` (stereo not shown) [compound 41, ([4-benzyl-5-(3,5-dimethylpiperidin-1-yl)-oxazol-2-yl]-{4-[(4-chlorophenyl)-dimethylaminomethyl]-cyclohexyl}-methyl)-diethylamine], with 64%.
Take `CC1CC(C)CN(c2oc(C(C3CCC(C(c4ccc(Cl)cc4)N(C)C)CC3)N(C)c3ccccc3)nc2Cc2ccccc2)C1` (stereo not shown) [compound 42, ([4-benzyl-5-(3,5-dimethylpiperidin-1-yl)-oxazol-2-yl]-{4-[(4-chlorophenyl)-dimethylaminomethyl]-cyclohexyl}-methyl)-methylphenylamine]: the inhibition at 1 µM worked out at 79%.
For the compound `CCN(CC)c1oc(C(C2CCC(C(c3ccc(Cl)cc3)N(C)C)CC2)N2CCN(Cc3ccccc3)CC2)nc1Cc1ccccc1` (stereo not shown) [compound 44, [4-benzyl-2-((4-benzylpiperazin-1-yl)-{4-[(4-chlorophenyl)-dimethylaminomethyl]-cyclohexyl}-methyl)-oxazol-5-yl]-diethylamine], the inhibition at 1 µM turned out to be 67%.
Turning to `CC1CC(C)CN(c2oc(C(C3CCC(C(c4cccs4)N(C)C)CC3)N3CCCCC3)nc2Cc2ccccc2)C1` (stereo not shown) [compound 45, [(4-{[4-benzyl-5-(3,5-dimethylpiperidin-1-yl)-oxazol-2-yl]-piperidin-1-yl-methyl}-cyclohexyl)-thiophen-2-yl-methyl]-dimethylamine], the inhibition at 1 µM came out at 71%.
Same read-out and setting: then `CN(CCc1ccccc1)c1oc(C(C2CCC(C(c3cccs3)N(C)C)CC2)N2CCCCC2)nc1Cc1ccccc1` (stereo not shown) [compound 46, (4-benzyl-2-{[4-(dimethylaminothiophen-2-yl-methyl)-cyclohexyl]-piperidin-1-yl-methyl}-oxazol-5-yl)-methylphenethylamine], with 80%.
Regarding `CCN(CC)c1oc(C(C2CCC(C(c3cccs3)N(C)C)CC2)N2CCCCC2)nc1Cc1ccccc1` (stereo not shown) [compound 47, (4-benzyl-2-{[4-(dimethylamino-thiophen-2-yl-methyl)-cyclohexyl]-piperidin-1-yl-methyl}-oxazol-5-yl)-diethylamine], the inhibition at 1 µM turned out to be 73%.
On the same count and under the same terms, then `CN(C)C(c1cccs1)C1CCC(C(c2nc(Cc3ccccc3)c(N3CCSCC3)o2)N2CCCCC2)CC1` (stereo not shown) [compound 48, ({4-[(4-benzyl-5-thiomorpholin-4-yl-oxazol-2-yl)-piperidin-1-yl-methyl]-cyclohexyl}-thiophen-2-yl-methyl)-dimethylamine], with 60%; and `CCN(CC)C(c1nc(Cc2ccccc2)c(N(C)CCc2ccccc2)o1)C1CCC(C(c2cccs2)N(C)C)CC1` (stereo not shown) [compound 49, (4-benzyl-2-{diethylamino-[4-(dimethylamino-thiophen-2-yl-methyl)-cyclohexyl]-methyl}-oxazol-5-yl)-methylphenethylamine], with 90%; and `CCN(CC)c1oc(C(C2CCC(C(c3cccs3)N(C)C)CC2)N(CC)CC)nc1Cc1ccccc1` (stereo not shown) [compound 50, (4-benzyl-2-{diethylamino-[4-(dimethylaminothiophen-2-yl-methyl)-cyclohexyl]-methyl}-oxazol-5-yl)-diethylamine], with 83%.
On to `CCN(CC)C(c1nc(Cc2ccccc2)c(N2CCCC(C)C2)o1)C1CCC(C(c2cccs2)N(C)C)CC1` (stereo not shown) [compound 51, {[4-benzyl-5-(3-methylpiperidin-1-yl)-oxazol-2-yl]-[4-(dimethylamino-thiophen-2-yl-methyl)-cyclohexyl]-methyl}-diethylamine], for which the inhibition at 1 µM is 100%.
Still for that read-out and setting: in the case of `CN(C)C(c1cccs1)C1CCC(C(c2nc(Cc3ccccc3)c(N3CCSCC3)o2)N(C)c2ccccc2)CC1` (stereo not shown) [compound 52, {(4-benzyl-5-thiomorpholin-4-yl-oxazol-2-yl)-[4-(dimethylaminothiophen-2-yl-methyl)-cyclohexyl]-methyl}-methylphenylamine] it was 92%.
In the case of `CC1CC(C)CN(c2oc(C(C3CCC(C(c4cccs4)N(C)C)CC3)N3CCN(Cc4ccccc4)CC3)nc2Cc2ccccc2)C1` (stereo not shown) [compound 53, ({4-[[4-benzyl-5-(3,5-dimethylpiperidin-1-yl)-oxazol-2-yl]-(4-benzyl-piperazin-1-yl)-methyl]-cyclohexyl}-thiophen-2-yl-methyl)-dimethylamine], the inhibition at 1 µM was found to be 86%.
Take `CN(CCc1ccccc1)c1oc(C(C2CCC(C(c3cccs3)N(C)C)CC2)N2CCN(Cc3ccccc3)CC2)nc1Cc1ccccc1` (stereo not shown) [compound 54, (4-benzyl-2-{(4-benzyl-piperazin-1-yl)-[4-(dimethylaminothiophen-2-yl-methyl)-cyclohexyl]-methyl}-oxazol-5-yl)-methyl-phenethylamine]: the inhibition at 1 µM was 74%.
The same measure, in the same setting: then `CN(C)C(c1cccs1)C1CCC(C(c2nc(Cc3ccccc3)c(N3CCSCC3)o2)N2CCN(Cc3ccccc3)CC2)CC1` (stereo not shown) [compound 55, ({4-[(4-benzylpiperazin-1-yl)-(4-benzyl-5-thiomorpholin-4-yl-oxazol-2-yl)-methyl]-cyclohexyl}-thiophen-2-yl-methyl)-dimethylamine], with 63%.
Consider `CN(C)C(c1ccc(Cl)cc1)C1CCC(CC(c2nc(Cc3ccccc3)c(N3CCN(Cc4ccccc4)CC3)o2)N2CCCCC2)CC1` (stereo not shown) [compound 56, [(4-{2-[4-benzyl-5-(4-benzyl-piperazin-1-yl)-oxazol-2-yl]-2-piperidin-1-yl-ethyl}-cyclohexyl)-(4-chlorophenyl)-methyl]-dimethylamine], for which the inhibition at 1 µM was 62%.
On to `CC1CCN(c2oc(C(CC3CCC(C(c4ccc(Cl)cc4)N(C)C)CC3)N3CCCCC3)nc2Cc2ccccc2)CC1` (stereo not shown) [compound 57, [(4-{2-[4-benzyl-5-(4-methylpiperidin-1-yl)-oxazol-2-yl]-2-piperidin-1-yl-ethyl}-cyclohexyl)-(4-chlorophenyl)-methyl]-dimethylamine], for which the inhibition at 1 µM came out at 64%.
Turning to `CN(Cc1ccccc1)c1oc(C(CC2CCC(C(c3ccc(Cl)cc3)N(C)C)CC2)N2CCCCC2)nc1Cc1ccccc1` (stereo not shown) [compound 58, Benzyl-[4-benzyl-2-(2-{4-[(4-chlorophenyl)-dimethylaminomethyl]-cyclohexyl}-1-piperidin-1-yl-ethyl)-oxazol-5-yl]-methylamine], the inhibition at 1 µM is 73%.
Regarding `CCN(CC)C(CC1CCC(C(c2ccc(Cl)cc2)N(C)C)CC1)c1nc(Cc2ccccc2)c(N2CCC(Cc3ccccc3)CC2)o1` (stereo not shown) [compound 59, (1-[4-benzyl-5-(4-benzylpiperidin-1-yl)-oxazol-2-yl]-2-{4-[(4-chlorophenyl)-dimethylaminomethyl]-cyclohexyl}-ethyl)-diethylamine], the inhibition at 1 µM was 60%.
As for `CCN(CC)C(CC1CCC(C(c2ccc(Cl)cc2)N(C)C)CC1)c1nc(Cc2ccccc2)c(N2CCC(C)CC2)o1` (stereo not shown) [compound 60, (1-[4-benzyl-5-(4-methylpiperidin-1-yl)-oxazol-2-yl]-2-{4-[(4-chlorophenyl)-dimethylaminomethyl]-cyclohexyl}-ethyl)-diethylamine], the inhibition at 1 µM worked out at 68%.
For the compound `CCN(CC)C(CC1CCC(C(c2ccc(Cl)cc2)N(C)C)CC1)c1nc(Cc2ccccc2)c(N(C)Cc2ccccc2)o1` (stereo not shown) [compound 61, Benzyl-[4-benzyl-2-(2-{4-[(4-chlorophenyl)-dimethylaminomethyl]-cyclohexyl}-1-diethylamino-ethyl)-oxazol-5-yl]-methylamine], the inhibition at 1 µM worked out at 76%.

Values taken from patent publication US7608619B2, “Substituted oxazole compounds with analgesic activity” (Gruenenthal GmbH, priority 2005, dated 2009).
